Source: paper PMC6556568, “A surface-exposed GH26 β-mannanase from Bacteroides ovatus: Structure, role, and phylogenetic analysis of BoMan26B” (The Journal of Biological Chemistry, 2019)

Molecular target: T1, BoMan26B (Bacteroides ovatus, UniProt A0ABU3IS29)
T1 construct: gene RO706_12620; signal peptide (first 19 residues) removed; recombinant in E. coli BL21(DE3), purified on a HisTrap column; residues 37-361 modelled; catalytic Glu-201 and Glu-291
T1 sequence (A0ABU3IS29 20-360): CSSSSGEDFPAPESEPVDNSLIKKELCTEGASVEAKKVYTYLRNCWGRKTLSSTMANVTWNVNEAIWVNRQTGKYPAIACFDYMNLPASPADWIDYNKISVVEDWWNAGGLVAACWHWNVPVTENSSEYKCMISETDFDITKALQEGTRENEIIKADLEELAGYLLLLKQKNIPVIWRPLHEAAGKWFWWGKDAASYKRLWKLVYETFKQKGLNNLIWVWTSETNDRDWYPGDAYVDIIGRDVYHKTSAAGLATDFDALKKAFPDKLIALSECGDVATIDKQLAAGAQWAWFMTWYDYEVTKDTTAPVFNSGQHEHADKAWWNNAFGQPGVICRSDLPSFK
Experiment: hydrolysis in H2^[…], MALDI-TOF MS and HPAEC-PAD
Assay type: biochemical
Settings: 2 mM M6, 1 mM CaCl2, potassium phosphate pH 6.5, 8 °C

OC[C@H]1O[C@@H](O[C@H]2[C@H](O)[C@H](O)[C@H](O[C@H]3[C@H](O)[C@H](O)[C@H](O[C@H]4[C@H](O)[C@H](O)[C@H](O[C@H]5[C@H](O)[C@H](O)[C@H](O[C@H]6[C@H](O)[C@H](O)C(O)O[C@@H]6CO)O[C@@H]5CO)O[C@@H]4CO)O[C@@H]3CO)O[C@@H]2CO)[C@@H](O)[C@@H](O)[C@@H]1O (stereo partly shown) [M6, mannohexaose]
hydrolysis in H2^18O, MALDI-TOF MS and HPAEC-PAD: The main hydrolytic events of BoMan26B on M6 result in production of mannose
